Experimental data as given in US20240116892A1, “HETEROCYCLIC AMIDE AND UREA COMPOUNDS AS JAK2 INHIBITORS” (Ajax Therapeutics, Inc., priority 2022, published 2024).

Each compound was assayed against JAK2 (JH1 domain-catalytic, Y1007F, Y1008F) kinase (Homo sapiens (Human), UniProt O60674, Y1007F/Y1008F) (assay: JAK2 JH1 Domain Binding Assay). Details: qPCR readout.
In short: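 Competitive binding format: test compound, DNA-tagged JAK2 JH1 (Y1007F/Y1008F; HEK293-expressed NFkB fusion) and ligand-coated magnetic beads incubated 1 h at room temperature. Kinase retained on beads released with 0.5 μmol/L non-biotinylated ligand, then measured by qPCR.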

Sequence of JAK2 (JH1 domain-catalytic, Y1007F, Y1008F) kinase (O60674 849-1124 Y1007F/Y1008F): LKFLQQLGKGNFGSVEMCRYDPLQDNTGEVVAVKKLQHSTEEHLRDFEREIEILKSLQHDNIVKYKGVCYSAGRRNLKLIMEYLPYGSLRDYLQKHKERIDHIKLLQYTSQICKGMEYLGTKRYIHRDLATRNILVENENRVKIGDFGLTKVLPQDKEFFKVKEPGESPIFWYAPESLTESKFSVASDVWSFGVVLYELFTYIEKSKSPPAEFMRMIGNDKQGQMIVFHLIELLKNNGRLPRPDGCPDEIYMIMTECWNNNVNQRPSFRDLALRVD

CN(C)c1n[nH]c2ncc(N3CCC(N(C)C(=O)Nc4cc(C(F)(F)F)cn(C)c4=O)CC3)cc12 [Example I-46, 1-(1-(3-(dimethylamino)-1H-pyrazolo[3,4-b]pyridin-5-yl)piperidin-4-yl)-1-methyl-3-(1-methyl-2-oxo-5-(trifluoromethyl)-1,2-dihydropyridin-3-yl)urea] and COc1n[nH]c2ncc(N3CCC(N(C)C(=O)Nc4cc(C(F)(F)F)cn(C)c4=O)CC3)cc12 [Example I-69, 1-(1-(3-methoxy-1H-pyrazolo[3,4-b]pyridin-5-yl)piperidin-4-yl)-1-methyl-3-(1-methyl-2-oxo-5-(trifluoromethyl)-1,2-dihydropyridin-3-yl)urea] cannot be ordered by Kd: less than 10 nM for the first, less than 10 nM for the second.

First: Cn1cc(C(F)(F)F)cc(NC(=O)N2CCCC23CCN(c2cnc4[nH]ccc4n2)CC3)c1=O [Example I-47, N-(1-methyl-2-oxo-5-(trifluoromethyl)-1,2-dihydropyridin-3-yl)-8-(5H-pyrrolo[2,3-b]pyrazin-2-yl)-1,8-diazaspiro[4.5]decane-1-carboxamide]
Second: Cn1cc(C(F)(F)F)cc(NC(=O)N2CCC23CCN(c2cnc4[nH]ccc4n2)CC3)c1=O [Example I-67, N-(1-methyl-2-oxo-5-(trifluoromethyl)-1,2-dihydropyridin-3-yl)-7-(5H-pyrrolo[2,3-b]pyrazin-2-yl)-1,7-diazaspiro[3.5]nonane-1-carboxamide]
The Kd of the first is lower: 10 to 50 nM for the first, 50 to 1000 nM for the second.

First: CN(C)C(=O)Nc1cnc(N2CCC(N(C)C(=O)Nc3cc(C(F)(F)F)cn(C)c3=O)CC2)cn1 [Example I-48, 1,1-dimethyl-3-(5-(4-(1-methyl-3-(1-methyl-2-oxo-5-(trifluoromethyl)-1,2-dihydropyridin-3-yl)ureido)piperidin-1-yl)pyrazin-2-yl)urea]
Second: CN(C(=O)Nc1cc(C(F)(F)F)cn(C)c1=O)C1CCN(c2cnc3[nH]ncc3n2)CC1 [Example I-68, 1-(1-(1H-pyrazolo[3,4-b]pyrazin-5-yl)piperidin-4-yl)-1-methyl-3-(1-methyl-2-oxo-5-(trifluoromethyl)-1,2-dihydropyridin-3-yl)urea]
The Kd of the first is higher: 10 to 50 nM for the first, less than 10 nM for the second.

Compared with Cn1cc(C(F)(F)F)cc(NC(=O)N2CCCC23CCN(c2cnc4[nH]ncc4c2)CC3)c1=O [Example I-50, N-(1-methyl-2-oxo-5-(trifluoromethyl)-1,2-dihydropyridin-3-yl)-8-(1H-pyrazolo[3,4-b]pyridin-5-yl)-1,8-diazaspiro[4.5]decane-1-carboxamide], Cn1cc(C(F)(F)F)cc(NC(=O)N2CCCC23CCN(c2cnc4[nH]cc(F)c4n2)CC3)c1=O [Example I-52, 8-(7-fluoro-5H-pyrrolo[2,3-b]pyrazin-2-yl)-N-(1-methyl-2-oxo-5-(trifluoromethyl)-1,2-dihydropyridin-3-yl)-1,8-diazaspiro[4.5]decane-1-carboxamide] is higher in Kd: 10 to 50 nM for the first, 50 to 1000 nM for the second.

CN(C(=O)Nc1cc(C(F)(F)F)cn(C)c1=O)C1(C)CCN(c2cnc3[nH]ccc3n2)CC1 [Example I-51, 1-methyl-1-(4-methyl-1-(5H-pyrrolo[2,3-b]pyrazin-2-yl)piperidin-4-yl)-3-(1-methyl-2-oxo-5-(trifluoromethyl)-1,2-dihydropyridin-3-yl)urea] and CN(C(=O)Nc1cc(C(F)(F)F)cn(C)c1=O)C1(C)CCN(c2cnc3[nH]cc(F)c3n2)CC1 [Example I-56, 1-(1-(7-fluoro-5H-pyrrolo[2,3-b]pyrazin-2-yl)-4-methylpiperidin-4-yl)-1-methyl-3-(1-methyl-2-oxo-5-(trifluoromethyl)-1,2-dihydropyridin-3-yl)urea] fall in the same range of Kd: 10 to 50 nM for the first, 10 to 50 nM for the second.

CN(C(=O)Nc1cc(C(F)(F)F)cn(C)c1=O)C1CC2(C1)CN(c1cnc3[nH]ccc3n1)C2 [Example I-55, 1-(2-(5H-pyrrolo[2,3-b]pyrazin-2-yl)-2-azaspiro[3.3]heptan-6-yl)-1-methyl-3-(1-methyl-2-oxo-5-(trifluoromethyl)-1,2-dihydropyridin-3-yl)urea] and CN(C(=O)Nc1cc(C(F)(F)F)cn(C)c1=O)C1CC2(C1)CN(c1cnc3[nH]ncc3n1)C2 [Example I-72, 1-(2-(1H-pyrazolo[3,4-b]pyrazin-5-yl)-2-azaspiro[3.3]heptan-6-yl)-1-methyl-3-(1-methyl-2-oxo-5-(trifluoromethyl)-1,2-dihydropyridin-3-yl)urea] cannot be ordered by Kd: less than 10 nM for the first, less than 10 nM for the second.

CN(C(=O)Nc1cc(C(F)(F)F)cn(C)c1=O)C1CC2(C1)CN(c1cnc3[nH]ncc3c1)C2 [Example I-57, 1-(2-(1H-pyrazolo[3,4-b]pyridin-5-yl)-2-azaspiro[3.3]heptan-6-yl)-1-methyl-3-(1-methyl-2-oxo-5-(trifluoromethyl)-1,2-dihydropyridin-3-yl)urea] and C[C@@H]1CN(c2cnc3[nH]ncc3c2)CC[C@@H]1N(C)C(=O)Nc1cc(C(F)(F)F)cn(C)c1=O [Example I-70-a, 1-methyl-1-((3R,4S)-3-methyl-1-(1H-pyrazolo[3,4-b]pyridin-5-yl)piperidin-4-yl)-3-(1-methyl-2-oxo-5-(trifluoromethyl)-1,2-dihydropyridin-3-yl)urea] cannot be ordered by Kd: less than 10 nM for the first, less than 10 nM for the second.

C[C@@H]1CN(c2cnc3[nH]ccc3n2)CC[C@@H]1N(C)C(=O)Nc1cc(C(F)(F)F)cn(C)c1=O [Example I-58-a, 1-methyl-1-((3R,4S)-3-methyl-1-(5H-pyrrolo[2,3-b]pyrazin-2-yl)piperidin-4-yl)-3-(1-methyl-2-oxo-5-(trifluoromethyl)-1,2-dihydropyridin-3-yl)urea] and C[C@H]1CN(c2cnc3[nH]ccc3n2)CC[C@H]1N(C)C(=O)Nc1cc(C(F)(F)F)cn(C)c1=O [Example I-58-b, 1-methyl-1-((3S,4R)-3-methyl-1-(5H-pyrrolo[2,3-b]pyrazin-2-yl)piperidin-4-yl)-3-(1-methyl-2-oxo-5-(trifluoromethyl)-1,2-dihydropyridin-3-yl)urea] cannot be ordered by Kd: less than 10 nM for the first, less than 10 nM for the second.

Going from CN(C(=O)Nc1cc(C(F)(F)F)cn(C)c1=O)C1CCN(c2cnc3[nH]cc(C#N)c3n2)CC1 [Example I-59, 1-(1-(7-cyano-5H-pyrrolo[2,3-b]pyrazin-2-yl)piperidin-4-yl)-1-methyl-3-(1-methyl-2-oxo-5-(trifluoromethyl)-1,2-dihydropyridin-3-yl)urea] to CN(C(=O)Nc1cc(C(F)(F)F)cn(C)c1=O)C1CC2(C1)CN(c1cnc3[nH]cc(C#N)c3n1)C2 [Example I-75, 1-(2-(7-cyano-5H-pyrrolo[2,3-b]pyrazin-2-yl)-2-azaspiro[3.3]heptan-6-yl)-1-methyl-3-(1-methyl-2-oxo-5-(trifluoromethyl)-1,2-dihydropyridin-3-yl)urea], the Kd rises from less than 10 nM to no less than 5000 nM. The first binds more tightly here.

CN(C(=O)Nc1cc(C(F)(F)F)cn(C)c1=O)[C@@H]1CCN(c2cnc3[nH]ccc3n2)C[C@@H]1F [Example I-64-a, 1-((3S,4R)-3-fluoro-1-(5H-pyrrolo[2,3-b]pyrazin-2-yl)piperidin-4-yl)-1-methyl-3-(1-methyl-2-oxo-5-(trifluoromethyl)-1,2-dihydropyridin-3-yl)urea] and CN(C(=O)Nc1cc(C(F)(F)F)cn(C)c1=O)[C@H]1CCN(c2cnc3[nH]ccc3n2)C[C@H]1F [Example I-64-b, 1-((3R,4S)-3-fluoro-1-(5HI-pyrrolo[2,3-b]pyrazin-2-yl)piperidin-4-yl)-1-methyl-3-(1-methyl-2-oxo-5-(trifluoromethyl)-1,2-dihydropyridin-3-yl)urea] cannot be ordered by Kd: less than 10 nM for the first, less than 10 nM for the second.

First: Cn1cc(C(F)(F)F)cc(NC(=O)C2(C3CCN(c4cnc5[nH]cc(F)c5n4)CC3)CC2)c1=O [Example I-65, 1-(1-(7-fluoro-5H-pyrrolo[2,3-b]pyrazin-2-yl)piperidin-4-yl)-N-(1-methyl-2-oxo-5-(trifluoromethyl)-1,2-dihydropyridin-3-yl)cyclopropane-1-carboxamide]
Second: Cn1cc(C(F)(F)F)cc(NC(=O)OC2(C)CCN(c3cnc4[nH]ccc4n3)CC2)c1=O [Example I-71, 4-methyl-1-(5H-pyrrolo[2,3-b]pyrazin-2-yl)piperidin-4-yl (1-methyl-2-oxo-5-(trifluoromethyl)-1,2-dihydropyridin-3-yl)carbamate]
The Kd of the first is lower: less than 10 nM for the first, 50 to 1000 nM for the second. The first binds more tightly here.

CN(C(=O)Nc1cc(C(F)(F)F)cn(C)c1=O)C1CCN(c2cnc3sncc3c2)CC1 [Example I-66, 1-(1-(isothiazolo[5,4-b]pyridin-5-yl)piperidin-4-yl)-1-methyl-3-(1-methyl-2-oxo-5-(trifluoromethyl)-1,2-dihydropyridin-3-yl)urea] and CN(C(=O)Nc1cc(C(F)(F)F)cn(C)c1=O)C1CCN(c2cnc3cn[nH]c3c2)CC1 [Example I-73, 1-(1-(1H-pyrazolo[4,3-b]pyridin-6-yl)piperidin-4-yl)-1-methyl-3-(1-methyl-2-oxo-5-(trifluoromethyl)-1,2-dihydropyridin-3-yl)urea] cannot be ordered by Kd: less than 10 nM for the first, less than 10 nM for the second.

C[C@H]1CN(c2cnc3[nH]ncc3c2)CC[C@H]1N(C)C(=O)Nc1cc(C(F)(F)F)cn(C)c1=O [Example I-70-b, 1-methyl-1-((3S,4R)-3-methyl-1-(1H-pyrazolo[3,4-b]pyridin-5-yl)piperidin-4-yl)-3-(1-methyl-2-oxo-5-(trifluoromethyl)-1,2-dihydropyridin-3-yl)urea] and C[C@H]1CN(c2cnc3[nH]ncc3c2)CC[C@@H]1N(C)C(=O)Nc1cc(C(F)(F)F)cn(C)c1=O [Example I-74-a, 1-methyl-1-((3S,4S)-3-methyl-1-(1H-pyrazolo[3,4-b]pyridin-5-yl)piperidin-4-yl)-3-(1-methyl-2-oxo-5-(trifluoromethyl)-1,2-dihydropyridin-3-yl)urea] cannot be ordered by Kd: less than 10 nM for the first, less than 10 nM for the second.

First: C[C@@H]1CN(c2cnc3[nH]ncc3c2)CC[C@H]1N(C)C(=O)Nc1cc(C(F)(F)F)cn(C)c1=O [Example I-74-b, 1-methyl-1-((3R,4R)-3-methyl-1-(1H-pyrazolo[3,4-b]pyridin-5-yl)piperidin-4-yl)-3-(1-methyl-2-oxo-5-(trifluoromethyl)-1,2-dihydropyridin-3-yl)urea]
Second: CN(C(=O)Nc1cc(C(F)(F)F)cn(C)c1=O)C1CCN(c2cnc3[nH]c(=O)[nH]c3c2)CC1 [Example I-76, 1-methyl-3-(1-methyl-2-oxo-5-(trifluoromethyl)-1,2-dihydropyridin-3-yl)-1-(1-(2-oxo-2,3-dihydro-1H-imidazo[4,5-b]pyridin-6-yl)piperidin-4-yl)urea]
The Kd of the first is higher: 50 to 1000 nM for the first, less than 10 nM for the second.
